Results as given in patent US8680139B2 (Progenra, priority 2009, dated 2014).

molecular target: T1, USP7 (Homo sapiens, UniProt Q93009); assay: USP7, Ub-PLA2 assay; type: biochemical; details: Ub-PLA2 / NBD C6-HPC fluorescence, 30 minute preincubation; read-out: EC50 for inhibition of USP7
T1 construct: full length human USP7 protein; made in house
How it was run: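 Activity read as fluorescence in a Ub-PLA2 format, with percent inhibition calculated within each plate against DMSO (uninhibited) and NEM (background) wells. Vehicle was 100% DMSO.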

T1 sequence (Q93009 whole entry): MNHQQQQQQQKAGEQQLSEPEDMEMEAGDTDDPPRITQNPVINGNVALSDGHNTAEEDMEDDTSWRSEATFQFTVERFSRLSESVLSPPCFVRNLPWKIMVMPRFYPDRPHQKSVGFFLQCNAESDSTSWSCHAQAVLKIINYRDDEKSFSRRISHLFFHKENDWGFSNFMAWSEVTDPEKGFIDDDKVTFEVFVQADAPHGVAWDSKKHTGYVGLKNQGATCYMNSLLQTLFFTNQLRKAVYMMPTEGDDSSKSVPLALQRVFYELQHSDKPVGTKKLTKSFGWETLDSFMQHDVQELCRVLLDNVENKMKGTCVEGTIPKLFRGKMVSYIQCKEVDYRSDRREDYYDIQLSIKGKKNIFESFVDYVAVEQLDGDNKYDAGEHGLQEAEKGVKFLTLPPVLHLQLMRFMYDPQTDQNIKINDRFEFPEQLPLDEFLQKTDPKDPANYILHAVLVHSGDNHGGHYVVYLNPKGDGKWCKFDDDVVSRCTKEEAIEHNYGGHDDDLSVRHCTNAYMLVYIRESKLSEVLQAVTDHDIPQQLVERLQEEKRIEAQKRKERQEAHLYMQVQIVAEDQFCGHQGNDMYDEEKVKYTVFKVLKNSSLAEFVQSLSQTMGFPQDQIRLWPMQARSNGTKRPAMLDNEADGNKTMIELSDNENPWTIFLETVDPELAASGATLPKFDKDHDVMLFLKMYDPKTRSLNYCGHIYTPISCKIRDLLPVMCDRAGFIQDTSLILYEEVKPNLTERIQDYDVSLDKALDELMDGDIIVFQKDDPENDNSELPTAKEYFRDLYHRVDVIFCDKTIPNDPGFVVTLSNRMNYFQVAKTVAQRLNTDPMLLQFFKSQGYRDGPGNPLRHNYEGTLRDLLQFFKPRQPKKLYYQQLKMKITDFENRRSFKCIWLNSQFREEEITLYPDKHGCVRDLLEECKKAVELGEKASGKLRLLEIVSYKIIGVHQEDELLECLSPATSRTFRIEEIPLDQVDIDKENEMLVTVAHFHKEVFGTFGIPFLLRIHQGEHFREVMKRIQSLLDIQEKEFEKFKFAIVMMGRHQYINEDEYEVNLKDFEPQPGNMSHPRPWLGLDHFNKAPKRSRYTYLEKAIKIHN

Row | EC50 | Structure (SMILES)
1 | 1000 to 10000 nM | O=C1COc2ccc(Sc3sc(C(=O)Nc4cc(C5CC5)n[nH]4)cc3[N+](=O)[O-])cc2N1 [Example 248, N-(3-cyclopropyl-1H-pyrazol-5-yl)-4-nitro-5-((3-oxo-3,4-dihydro-2H-benzo[b][1,4]oxazin-6-yl)thio)thiophene-2-carboxamide]
2 | 1000 to 10000 nM | CCOC(=O)CNC(=O)c1cc([N+](=O)[O-])c(Sc2c(Cl)cncc2Cl)s1 [Example 209, Ethyl 2-(5-((3,5-dichloropyridin-4-yl)thio)-4-nitrothiophene-2-carboxamido)acetate]
3 | > 10000 nM | CN1CCC(NC(=O)c2cc([N+](=O)[O-])c(Oc3c(Cl)cncc3Cl)s2)CC1 [Example 259, 5-((3,5-dichloropyridin-4-yl)oxy)-N-(1-methylpiperidin-4-yl)-4-nitrothiophene-2-carboxamide]
4 | ≤ 1000 nM | O=C(NCCCN1CCC(O)CC1)c1cc([N+](=O)[O-])c(Sc2c(Cl)cncc2Cl)s1 [Example 225, 5-((3,5-dichloropyridin-4-yl)thio)-N-(3-(4-hydroxypiperidin-1-yl)propyl)-4-nitrothiophene-2-carboxamide]
5 | 1000 to 10000 nM | CS(=O)(=O)CCCNC(=O)c1cc([N+](=O)[O-])c(Sc2c(Cl)cncc2Cl)s1 [Example 245, 5-((3,5-dichloropyridin-4-yl)thio)-N-(3-(methylsulfonyl)propyl)-4-nitrothiophene-2-carboxamide]
6 | 1000 to 10000 nM | O=C(NCc1ccccc1)c1cc([N+](=O)[O-])c(Sc2nc3ccccc3s2)s1 [Example 252, 5-(benzo[d]thiazol-2-ylthio)-N-benzyl-4-nitrothiophene-2-carboxamide]
7 | 1000 to 10000 nM | CN(C)CCNC(=O)CNC(=O)c1cc([N+](=O)[O-])c(Sc2c(Cl)cncc2Cl)s1 [Example 217, 5-((3,5-dichloropyridin-4-yl)thio)-N-(2-((2-(dimethylamino)ethyl)amino)-2-oxoethyl)-4-nitrothiophene-2-carboxamide]
8 | > 10000 nM | CC(C)N1CCC(NC(=O)c2cc([N+](=O)[O-])c(Oc3c(Cl)cncc3Cl)s2)CC1 [Example 260, 5-((3,5-dichloropyridin-4-yl)oxy)-N-(1-isopropylpiperidin-4-yl)-4-nitrothiophene-2-carboxamide]
9 | ≤ 1000 nM | N=C(N)N1CCC(NC(=O)c2cc([N+](=O)[O-])c(Sc3c(Cl)cncc3Cl)s2)CC1 [Example 237, N-(1-carbamimidoylpiperidin-4-yl)-5-((3,5-dichloropyridin-4-yl)thio)-4-nitrothiophene-2-carboxamide]
10 | ≤ 1000 nM | O=C(NCc1ccc(Cl)nc1)c1cc([N+](=O)[O-])c(Sc2c(Cl)cncc2Cl)s1 [Example 162, N-((6-chloropyridin-3-yl)methyl)-5-((3,5-dichloropyridin-4-yl)thio)-4-nitrothiophene-2-carboxamide]
11 | 1000 to 10000 nM | CN(C)CCC(NC(=O)c1cc([N+](=O)[O-])c(Sc2nc3ccccc3s2)s1)c1ccccc1 (stereo not shown) [Example 254, 5-(benzo[d]thiazol-2-ylthio)-N-(3-(dimethylamino)-1-phenylpropyl)-4-nitrothiophene-2-carboxamide]
12 | 1000 to 10000 nM | O=C(NCCCN1CCCC(O)C1)c1cc([N+](=O)[O-])c(Sc2c(Cl)cncc2Cl)s1 (stereo not shown) [Example 223, 5-((3,5-dichloropyridin-4-yl)thio)-N-(3-(3-hydroxypiperidin-1-yl)propyl)-4-nitrothiophene-2-carboxamide]
13 | ≤ 1000 nM | CC(C)N1CCC(NC(=O)c2cc([N+](=O)[O-])c(Sc3c(Cl)cncc3Cl)s2)CC1 [Example 187, 5-((3,5-dichloropyridin-4-yl)thio)-N-(1-isopropylpiperidin-4-yl)-4-nitrothiophene-2-carboxamide]

The remaining lines, values behind:

Row | Structure (SMILES) | EC50
14 | CN(C)c1cccc(CNC(=O)c2cc([N+](=O)[O-])c(Sc3c(Cl)cncc3Cl)s2)c1 [Example 146, 5-((3,5-dichloropyridin-4-yl)thio)-N-(3-(dimethylamino)benzyl)-4-nitrothiophene-2-carboxamide] | ≤ 1000 nM
15 | CNC(=O)c1cc([N+](=O)[O-])c(Sc2cccc(Cl)c2Cl)s1 [Example 42, 5-(2,3-dichlorophenylsulfanyl)-N-methyl-4-nitrothiophene-2-carboxamide] | 1000 to 10000 nM
16 | CC(=O)c1cc([N+](=O)[O-])c(Sc2c(Cl)c[n+]([O-])cc2Cl)s1 [Example 18, 1-[5-(3,5-dichloro-1-oxido-pyridin-1-ium-4-yl)sulfanyl-4-nitro-2-thienyl]ethanone] | 1000 to 10000 nM
17 | O=C(NC1C2CC3CC(C2)CC1C3)c1cc([N+](=O)[O-])c(Sc2c(Cl)cncc2Cl)s1 (stereo not shown) [Example 75, N-((1r,3r,5r,7r)-adamantan-2-yl)-5-((3,5-dichloropyridin-4-yl)thio)-4-nitrothiophene-2-carboxamide] | 1000 to 10000 nM
18 | O=C(NCc1cccc(-c2ccccc2)c1)c1cc([N+](=O)[O-])c(Sc2c(Cl)cncc2Cl)s1 [Example 58, N-([1,1′-biphenyl]-3-ylmethyl)-5-((3,5-dichloropyridin-4-yl)thio)-4-nitrothiophene-2-carboxamide] | 1000 to 10000 nM
19 | O=[N+]([O-])c1cc(Br)sc1Sc1ccc(Cl)cc1Cl [Example 33, 5-bromo-2-(2,4-dichlorophenyl)sulfanyl-3-nitro-thiophene] | > 10000 nM
20 | O=C(NCCN1CCOCC1)c1cc([N+](=O)[O-])c(Sc2c(Cl)cncc2Cl)s1 [Example 59, 5-((3,5-dichloropyridin-4-yl)thio)-N-(2-morpholinoethyl)-4-nitrothiophene-2-carboxamide] | 1000 to 10000 nM
21 | O=C(c1cc([N+](=O)[O-])c(Sc2c(Cl)cncc2Cl)s1)N1CCC(CO)CC1 [Example 73, (5-((3,5-dichloropyridin-4-yl)thio)-4-nitrothiophen-2-yl)(4-(hydroxymethyl)piperidin-1-yl)methanone] | 1000 to 10000 nM
22 | O=C(NCCc1ccccc1F)c1cc([N+](=O)[O-])c(Sc2c(Cl)cncc2Cl)s1 [Example 111, 5-((3,5-dichloropyridin-4-yl)thio)-N-(2-fluorophenethyl)-4-nitrothiophene-2-carboxamide] | ≤ 1000 nM
23 | COc1ccccc1CNC(=O)c1cc([N+](=O)[O-])c(Sc2c(Cl)cncc2Cl)s1 [Example 51, 5-((3,5-dichloropyridin-4-yl)thio)-N-(2-methoxybenzyl)-4-nitrothiophene-2-carboxamide] | 1000 to 10000 nM
24 | O=C(NCc1ccccc1)c1cc([N+](=O)[O-])c(Sc2c(Cl)cncc2Cl)s1 [Example 45, N-benzyl-5-[(3,5-dichloro-4-pyridyl)sulfanyl]-4-nitro-thiophene-2-carboxamide] | 1000 to 10000 nM
25 | Cc1csc(NC(=O)c2cc([N+](=O)[O-])c(Sc3c(Cl)cncc3Cl)s2)n1 [Example 87, 5-((3,5-dichloropyridin-4-yl)thio)-N-(4-methylthiazol-2-yl)-4-nitrothiophene-2-carboxamide] | 1000 to 10000 nM
26 | CCOC(=O)c1cc([N+](=O)[O-])c(Sc2cccc(Cl)c2Cl)s1 [Example 41, Ethyl 5-(2,3-dichlorophenylsulfanyl)-4-nitrothiophene-2-carboxylate] | > 10000 nM
27 | O=C(NCCOc1ccccc1)c1cc([N+](=O)[O-])c(Sc2c(Cl)cncc2Cl)s1 [Example 54, 5-((3,5-dichloropyridin-4-yl)thio)-4-nitro-N-(2-phenoxyethyl)thiophene-2-carboxamide] | 1000 to 10000 nM
28 | COC(=O)c1cc([N+](=O)[O-])c(Sc2c(Cl)cncc2Cl)s1 [Example 43, Methyl 5-[(3,5-dichloro-4-pyridyl)sulfanyl]-4-nitro-thiophene-2-carboxylate] | 1000 to 10000 nM
